# According to patent publication US20200187502A1, “MICROBIOCIDAL OXADIAZOLE DERIVATIVES” (SYNGENTA PARTICIPATIONS AG, priority 2017, published 2020):
# How the values were obtained:
# [1] = test system: Puccinia recondita f. Sp. Tritici; assay: Fungicidal activity, wheat leaf disc curative (brown rust); assay type: in vivo; conditions: foliar, 200 ppm in the applied formulation, wheat leaf segments cv. Kanzler, curative (applied 1 day after inoculation), compared to untreated control, 6 to 8 days after application, read-out: disease control
# Method: (§1) Leaf disks or leaf segments of various plant species are cut from plants grown in a greenhouse. The cut leaf disks or segments are placed in multiwell plates (24-well format) onto water agar. The leaf disks are sprayed with a test solution before (preventative) or after (curative) inoculation. Compounds to be tested are prepared as DMSO solutions (max. 10 mg/ml) which are diluted to the appropriate concentration with 0.025% Tween20 just before spraying. The inoculated leaf disks or segments are incubated under defined conditions (temperature, relative humidity, light, etc.) according to the respective test system. A single evaluation of disease level is carried out 3 to 14 days after inoculation, depending on the pathosystem. Percent disease control relative to the untreated check leaf disks or segments is then calculated.
# Wheat leaf segments cv. Kanzler are placed on agar in multiwell plates (24-well format). The leaf segments are then inoculated with a spore suspension of the fungus. Plates were stored in darkness at 19° C. and 75% relative humidity. The formulated test compound diluted in water was applied 1 day after inoculation. The leaf segments were incubated at 19° C. and 75% relative humidity under a light regime of 12 hours light/12 hours darkness in a climate cabinet and the activity of a compound was assessed as percent disease control compared to untreated when an appropriate level of disease damage appears in untreated check leaf segments (6 to 8 days after application).
# (§2) The following compounds at 200 ppm in the applied formulation give at least 80% disease control in this test when compared to untreated control leaf disks under the same conditions, which show extensive disease development.
# [2] = test system: Glomerella lacenarium (Colletotrichum lacenarium); assay: Fungicidal activity, liquid culture, cucumber preventative (anthracnose); assay type: cell-based; conditions: 20 ppm in the applied formulation, liquid culture in PDB, inhibition of growth measured photometrically 3 to 4 days after application, compared to untreated control, read-out: disease control
# Method: Mycelia fragments or conidia suspensions of a fungus prepared either freshly from liquid cultures of the fungus or from cryogenic storage, are directly mixed into nutrient broth. DMSO solutions of the test compound (max. 10 mg/ml) are diluted with 0.025% Tween20 by a factor of 50 and 10 μl of this solution is pipetted into a microtiter plate (96-well format). The nutrient broth containing the fungal spores/mycelia fragments is then added to give an end concentration of the tested compound. The test plates are incubated in the dark at 24° C. and 96% relative humidity. The inhibition of fungal growth is determined photometrically after 2 to 7 days, depending on the pathosystem, and percent antifungal activity relative to the untreated check is calculated.
# Conidia of the fungus from cryogenic storage are directly mixed into nutrient broth (PDB—potato dextrose broth). After placing a (DMSO) solution of test compound into a microtiter plate (96-well format), the nutrient broth containing the fungal spores is added. The test plates are incubated at 24° C. and the inhibition of growth is measured photometrically 3 to 4 days after application.
# The following compounds at 20 ppm in the applied formulation give at least 80% disease control in this test when compared to untreated control under the same conditions, which show extensive disease development.
# [3] = test system: Puccinia recondita f. Sp. Tritici; assay: Fungicidal activity, wheat leaf disc preventative (brown rust); assay type: in vivo; conditions: foliar, 200 ppm in the applied formulation, wheat leaf segments cv. Kanzler, compared to untreated control, 7 to 9 days after application, read-out: disease control
# Method: as §1
# Wheat leaf segments cv. Kanzler were placed on agar in multiwell plates (24-well format) and sprayed with the formulated test compound diluted in water. The leaf disks were inoculated with a spore suspension of the fungus 1 day after application. The inoculated leaf segments were incubated at 19° C. and 75% relative humidity (rh) under a light regime of 12 hours light/12 hours darkness in a climate cabinet and the activity of a compound was assessed as percent disease control compared to untreated when an appropriate level of disease damage appears in untreated check leaf segments (7 to 9 days after application).
# as §2
SMILES,pest or weed control at 200 ppm [1] [%],inhibition of growth at 20 ppm [2] [%],pest or weed control at 200 ppm [3] [%]
"COC(C)C(=O)N(OC)C(C)c1ccc(-c2noc(C(F)(F)F)n2)s1 (stereo not drawn) [Compound 1.49, N,2-dimethoxy-N-[1-[5-[5-(trifluoromethyl)-1,2,4-oxadiazol-3-yl]-2-thienyl]ethyl]propanamide]",≥ 80,≥ 80,–
"COCCN(CCOC)C(=O)N(Cc1ccc(-c2noc(C(F)(F)F)n2)s1)OC [Compound 1.56, 1-methoxy-3,3-bis(2-methoxyethyl)-1-[[5-[5-(trifluoromethyl)-1,2,4-oxadiazol-3-yl]-2-thienyl]methyl]urea]",≥ 80,≥ 80,–
"CON(Cc1ccc(-c2noc(C(F)(F)F)n2)s1)C(=O)N1CCCO1 [Compound 1.57, N-methoxy-N-[[5-[5-(trifluoromethyl)-1,2,4-oxadiazol-3-yl]-2-thienyl]methyl]isoxazolidine-2-carboxamide]",≥ 80,≥ 80,–
"COC(C)C(=O)N(Cc1ccc(-c2noc(C(F)(F)F)n2)s1)C(C)C (stereo not drawn) [Compound 4.18, N-isopropyl-2-methoxy-N-[[5-[5-(trifluoromethyl)-1,2,4-oxadiazol-3-yl]-2-thienyl]methyl]propanamide]",≥ 80,≥ 80,–
"CCC(C)C(=O)N(CC)Cc1ccc(-c2noc(C(F)(F)F)n2)s1 (stereo not drawn) [Compound 4.27, N-ethyl-2-methyl-N-[[5-[5-(trifluoromethyl)-1,2,4-oxadiazol-3-yl]-2-thienyl]methyl]butanamide]",≥ 80,≥ 80,–
"CCC(C)C(=O)N(Cc1ccc(-c2noc(C(F)(F)F)n2)s1)C1CC1 (stereo not drawn) [Compound 4.57, N-cyclopropyl-2-methyl-N-[[5-[5-(trifluoromethyl)-1,2,4-oxadiazol-3-yl]-2-thienyl]methyl]butanamide]",≥ 80,≥ 80,–
"CCC(C)C(=O)N(Cc1ccc(-c2noc(C(F)(F)F)n2)s1)OCC(F)F (stereo not drawn) [Compound 4.66, N-(2,2-difluoroethoxy)-2-methyl-N-[[5-[5-(trifluoromethyl)-1,2,4-oxadiazol-3-yl]-2-thienyl]methyl]butanamide]",≥ 80,≥ 80,–
"O=C(CC(F)(F)F)N(Cc1ccc(-c2noc(C(F)(F)F)n2)s1)OCC(F)F [Compound 4.68, N-(2,2-difluoroethoxy)-3,3,3-trifluoro-N-[[5-[5-(trifluoromethyl)-1,2,4-oxadiazol-3-yl]-2-thienyl]methyl]propanamide]",≥ 80,≥ 80,–
"Cc1ccc(S(=O)(=O)N(C)Cc2ccc(-c3noc(C(F)(F)F)n3)s2)cc1 [Compound 6.28, N,4-dimethyl-N-[[5-[5-(trifluoromethyl)-1,2,4-oxadiazol-3-yl]-2-thienyl]methyl]benzenesulfonamide]",≥ 80,–,–
"CCS(=O)(=O)N(Cc1ccc(-c2noc(C(F)(F)F)n2)s1)C1CC1 [Compound 6.35, N-cyclopropyl-N-[[5-[5-(trifluoromethyl)-1,2,4-oxadiazol-3-yl]-2-thienyl]methyl]ethanesulfonamide]",–,≥ 80,≥ 80
"O=S(=O)(C1CC1)N(Cc1ccc(-c2noc(C(F)(F)F)n2)s1)C1CC1 [Compound 6.38, N-cyclopropyl-N-[[5-[5-(trifluoromethyl)-1,2,4-oxadiazol-3-yl]-2-thienyl]methyl]cyclopropanesulfonamide]",–,≥ 80,≥ 80
"CCCS(=O)(=O)N(Cc1ccc(-c2noc(C(F)(F)F)n2)s1)C1CC1 [Compound 6.39, N-cyclopropyl-N-[[5-[5-(trifluoromethyl)-1,2,4-oxadiazol-3-yl]-2-thienyl]methyl]propane-1-sulfonamide]",–,≥ 80,≥ 80
"CCN(Cc1ccc(-c2noc(C(F)(F)F)n2)s1)C(=O)C(=O)CC(C)C [Compound 6.44, N-ethyl-4-methyl-2-oxo-N-[[5-[5-(trifluoromethyl)-1,2,4-oxadiazol-3-yl]-2-thienyl]methyl]pentanamide]",–,≥ 80,≥ 80
"CCN(Cc1ccc(-c2noc(C(F)(F)F)n2)s1)C(=O)C(=O)c1cccs1 [Compound 6.45, N-ethyl-2-oxo-2-(2-thienyl)-N-[[5-[5-(trifluoromethyl)-1,2,4-oxadiazol-3-yl]-2-thienyl]methyl]acetamide]",–,≥ 80,≥ 80
"CN(Cc1ccc(-c2noc(C(F)(F)F)n2)s1)C(=O)C(=O)Cc1ccccc1 [Compound 6.50, N-methyl-2-oxo-3-phenyl-N-[[5-[5-(trifluoromethyl)-1,2,4-oxadiazol-3-yl]-2-thienyl]methyl]propanamide]",–,≥ 80,≥ 80
"O=C(C(=O)N(Cc1ccc(-c2noc(C(F)(F)F)n2)s1)C1CC1)c1ccccc1 [Compound 6.54, N-cyclopropyl-2-oxo-2-phenyl-N-[[5-[5-(trifluoromethyl)-1,2,4-oxadiazol-3-yl]-2-thienyl]methyl]acetamide]",–,≥ 80,≥ 80
"CC(C)(C)C(=O)C(=O)N(Cc1ccc(-c2noc(C(F)(F)F)n2)s1)C1CC1 [Compound 6.55, N-cyclopropyl-3,3-dimethyl-2-oxo-N-[[5-[5-(trifluoromethyl)-1,2,4-oxadiazol-3-yl]-2-thienyl]methyl]butanamide]",–,≥ 80,≥ 80
"CC(C)CC(=O)C(=O)N(Cc1ccc(-c2noc(C(F)(F)F)n2)s1)C1CC1 [Compound 6.58, N-cyclopropyl-4-methyl-2-oxo-N-[[5-[5-(trifluoromethyl)-1,2,4-oxadiazol-3-yl]-2-thienyl]methyl]pentanamide]",–,≥ 80,≥ 80
"O=C(C(=O)N(Cc1ccc(-c2noc(C(F)(F)F)n2)s1)C1CC1)c1cccs1 [Compound 6.59, N-cyclopropyl-2-oxo-2-(2-thienyl)-N-[[5-[5-(trifluoromethyl)-1,2,4-oxadiazol-3-yl]-2-thienyl]methyl]acetamide]",–,≥ 80,≥ 80
"O=C(C(=O)N(Cc1ccc(-c2noc(C(F)(F)F)n2)s1)C1CC1)c1ccco1 [Compound 6.60, N-cyclopropyl-2-(2-furyl)-2-oxo-N-[[5-[5-(trifluoromethyl)-1,2,4-oxadiazol-3-yl]-2-thienyl]methyl]acetamide]",–,≥ 80,≥ 80
"O=C(C(=O)N(Cc1ccc(-c2noc(C(F)(F)F)n2)s1)OCC(F)F)c1ccccc1 [Compound 6.61, N-(2,2-difluoroethoxy)-2-oxo-2-phenyl-N-[[5-[5-(trifluoromethyl)-1,2,4-oxadiazol-3-yl]-2-thienyl]methyl]acetamide]",–,≥ 80,≥ 80
"O=C(C(=O)N(Cc1ccc(-c2noc(C(F)(F)F)n2)s1)OCC(F)F)c1cccs1 [Compound 6.63, N-(2,2-difluoroethoxy)-2-oxo-2-(2-thienyl)-N-[[5-[5-(trifluoromethyl)-1,2,4-oxadiazol-3-yl]-2-thienyl]methyl]acetamide]",–,≥ 80,≥ 80
"O=C(C(=O)N(Cc1ccc(-c2noc(C(F)(F)F)n2)s1)OCC(F)F)c1ccco1 [Compound 6.64, N-(2,2-difluoroethoxy)-2-(2-furyl)-2-oxo-N-[[5-[5-(trifluoromethyl)-1,2,4-oxadiazol-3-yl]-2-thienyl]methyl]acetamide]",–,≥ 80,≥ 80
